Experimental data published in patent publication US20260166039A1 (SCHRÖDINGER, INC., priority 2022, published 2026).

molecular target: T1, Wee1 kinase domain (Homo sapiens, UniProt P30291); assay: Wee1 Kinase Biochemical Assay (ADP-Glo); conditions: 1 nM Wee1 enzyme, 15 uM ATP, 4 hours at 25° C
T1 construct: Wee1 kinase domain was purchased from Carna (catalog #05-177); purchased Carna 05-177
Outline: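 Carna Wee1 kinase domain at 1 nM, with 15 uM ATP and 2 ng/mL poly(Lys,Tyr 4:1) substrate in 40 mM Tris-HCl, 20 mM MgCl2, 0.1 mg/mL BSA, 2 mM DTT, run 4 h at 25° C. ADP formation read by ADP-Glo luminescence. Percent inhibition normalised to DMSO and saturating-inhibitor controls.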

T1 sequence (P30291 299-569 limits assumed): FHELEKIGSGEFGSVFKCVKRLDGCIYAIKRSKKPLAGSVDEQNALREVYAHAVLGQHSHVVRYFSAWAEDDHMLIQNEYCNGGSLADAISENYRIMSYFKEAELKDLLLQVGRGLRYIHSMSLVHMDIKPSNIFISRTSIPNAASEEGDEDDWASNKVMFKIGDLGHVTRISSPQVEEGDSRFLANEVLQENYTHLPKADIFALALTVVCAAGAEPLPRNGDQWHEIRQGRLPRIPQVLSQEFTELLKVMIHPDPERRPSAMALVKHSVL

In the case of `CC1(C)C[C@H]2N(c3cccc(N=S(C)(C)=O)n3)c3nc(Nc4cncc(C#N)c4)ncc3[C@@]2(C)CO1` (single isomer, unassigned) [Example 818], the IC50 is reported as < 10 nM.

same assay, conditions: Wee1 kinase domain, 15 uM ATP, ADP-Glo

`CN1CC(c2ccc(Nc3ncc4c(n3)N(c3cccc(N=S(C)(C)=O)n3)[C@H]3CC(C)(C)OC[C@@]43C)cc2)C1` (single isomer, unassigned) [Example 166] and `CN1CCC(c2ccc(Nc3ncc4c(n3)N(c3cccc(N=S(C)(C)=O)n3)[C@@H]3CC(C)(C)OC[C@]43C)cc2)CC1` (single isomer, unassigned) [Example 111] fall in the same range of IC50: 10 to 100 nM for the first, 10 to 100 nM for the second.

First: C[C@H]1COC(=O)N1c1cccc(N2c3nc(Nc4ccc(OC5CCNCC5)nc4)ncc3[C@]3(C)COC(C)(C)C[C@H]23)n1 (single isomer, unassigned) [Example 324]
Second: Cc1cc(Nc2ncc3c(n2)N(c2cccc(N4C(=O)OC[C@@H]4C)n2)[C@H]2CC(C)(C)OC[C@@]32C)ccc1O[C@H]1CCNC1 (single isomer, unassigned) [Example 338]
The IC50 of the first is higher: 100 to 1000 nM for the first, 10 to 100 nM for the second. The second is the more potent here.

`CNCc1cccc(N2c3nc(Nc4ccc([C@H]5CNC(=O)C5)cc4)ncc3[C@]3(C)COC(C)(C)C[C@H]23)n1` (single isomer, unassigned) [Example 62] and `CNCc1cccc(N2c3nc(Nc4ccc([C@@H]5CNC(=O)C5)cc4)ncc3[C@]3(C)COC(C)(C)C[C@H]23)n1` (single isomer, unassigned) [Example 64] fall in the same range of IC50: 10 to 100 nM for the first, 10 to 100 nM for the second.

`CNCc1cccc(N2c3nc(Nc4ccc([C@H]5CCOC5)cc4)ncc3[C@]3(C)COC(C)(C)C[C@H]23)n1` (single isomer, unassigned) [Example 39] and `CNCc1cccc(N2c3nc(Nc4ccc(C5CCOCC5)nc4)ncc3[C@]3(C)COC(C)(C)C[C@H]23)n1` (single isomer, unassigned) [Example 55] cannot be ordered by IC50: 100 to 1000 nM for the first, ≥ 1000 nM for the second.

`CC1(C)C[C@H]2N(c3cccc(N=S(C)(C)=O)n3)c3nc(Nc4ccc5cnoc5c4)ncc3[C@@]2(C)CO1` (single isomer, unassigned) [Example 381] and `CC1(C)C[C@H]2N(c3cccc(N=S(C)(C)=O)n3)c3nc(Nc4ccc5cnnn5c4)ncc3[C@@]2(C)CO1` (single isomer, unassigned) [Example 362] cannot be ordered by IC50: < 10 nM for the first, < 10 nM for the second.

`CNCc1cccc(N2c3nc(Nc4ccc(N5CCOCC5)c(C)c4)ncc3[C@]3(C)COC(C)(C)C[C@H]23)n1` (single isomer, unassigned) [Example 25] and `Cc1cc(Nc2ncc3c(n2)N(c2cccc(N=S(C)(C)=O)n2)[C@H]2CC(C)(C)OC[C@@]32C)ccc1C1CCN(C)CC1` (single isomer, unassigned) [Example 103] fall in the same range of IC50: 10 to 100 nM for the first, 10 to 100 nM for the second.

`CN1CC[C@@](C)(c2ccc(Nc3ncc4c(n3)N(c3cccc(N=S(C)(C)=O)n3)[C@H]3CC(C)(C)OC[C@@]43C)cc2)C1` (single isomer, unassigned) [Example 170] and `CN(C)C(=O)c1ccc(Nc2ncc3c(n2)N(c2cccc(N=S(C)(C)=O)n2)[C@H]2CC(C)(C)OC[C@@]32C)cc1` (single isomer, unassigned) [Example 142] fall in the same range of IC50: 10 to 100 nM for the first, 10 to 100 nM for the second.

First: CC1(C)C[C@@H]2N(c3cccc(N=S(C)(C)=O)n3)c3nc(Nc4ccc(C5CNC5)c(F)c4)ncc3[C@]2(C)CO1 (single isomer, unassigned) [Example 189]
Second: Cn1ccc2nc(Nc3ncc4c(n3)N(c3cccc(N=S(C)(C)=O)n3)[C@@H]3CC(C)(C)OC[C@]43C)cnc21 (single isomer, unassigned) [Example 383]
The IC50 of the first is higher: 100 to 1000 nM for the first, < 10 nM for the second.

`C[C@H]1COC(=O)N1c1cccc(N2c3nc(Nc4ccn(C)c(=O)c4)ncc3[C@]3(C)COC(C)(C)C[C@H]23)n1` (single isomer, unassigned) [Example 340] was tested, and the IC50 was 100 to 1000 nM.

same assay, conditions: class symbols; 1 nM Wee1 enzyme, 15 uM ATP, 4 hours at 25° C.

`CNCc1cccc(N2c3nc(NC(=O)[C@H]4C[C@@H]4c4cccnc4)ncc3[C@@]3(C)COC(C)(C)C[C@@H]23)n1` [Example 769, (1S,2S)-2-(pyridin-3-yl)-N-((4bR,8aR)-4b,7,7-trimethyl-9-(6-((methylamino)methyl)pyridin-2-yl)-4b,5,7,8,8a,9-hexahydropyrano[3′,4′:4,5]pyrrolo[2,3-d]pyrimidin-2-yl)cyclopropane-1-carboxamide] and `CNCc1cccc(N2c3nc(Nc4ccc(=O)n(C)c4)ncc3[C@]3(C)COC(C)(C)C[C@H]23)n1` (single isomer, unassigned) [Example 461] cannot be ordered by IC50: 100 to 1000 nM for the first, ≥ 1000 nM for the second.

`CN(C)Cc1cccc(N2c3nc(Nc4ccc(N5CCOCC5)cc4)ncc3[C@]3(C)COC(C)(C)C[C@H]23)n1` (single isomer, unassigned) [Example 524] and `CNCc1cccc(N2c3nc(Nc4ccc(N5CCOC[C@@H]5C)cc4)ncc3[C@]3(C)COC(C)(C)C[C@H]23)n1` (single isomer, unassigned) [Example 475] fall in the same range of IC50: 100 to 1000 nM for the first, 100 to 1000 nM for the second.

First: CC1(C)C[C@H]2N(c3cccc(N=S(C)(C)=O)n3)c3nc(NC(=O)c4ccccc4)ncc3[C@@]2(C)CO1 (single isomer, unassigned) [Example 404]
Second: CC1(C)C[C@H]2N(c3cccc(N=S(C)(C)=O)n3)c3nc(Nc4ccc(N5CC6(COC6)C5)cc4)ncc3[C@@]2(C)CO1 (single isomer, unassigned) [Example 508]
The IC50 of the first is higher: 10 to 100 nM for the first, < 10 nM for the second.

`CN1CCN(c2ccc(Nc3ncc4c(n3)N(c3cccc(C(F)F)n3)[C@@H]3CC(C)(C)OC[C@]43C)cc2)CC1` (single isomer, unassigned) [Example 807] and `CC1(C)C[C@H]2N(c3cccc(N4CCOC4=O)n3)c3nc(Nc4ccc(N5CCNCC5)cc4)ncc3[C@@]2(C)CO1` (single isomer, unassigned) [Example 601] cannot be ordered by IC50: < 10 nM for the first, < 10 nM for the second.

Compared with `CC1(C)C[C@@H]2N(c3cccc(C(C)(C)O)n3)c3nc(Nc4ccc(O[C@H]5CCNC5)cc4)ncc3[C@]2(C)CO1` (single isomer, unassigned) [Example 420], `CC1(C)C[C@@H]2N(c3cccc(N4CCCC4=O)n3)c3nc(Nc4ccc(O[C@@H]5CCNC5)cc4)ncc3[C@]2(C)CO1` [Example 617, 1-(6-((4bS,8aS)-4b,7,7-trimethyl-2-((4-(((R)-pyrrolidin-3-yl)oxy)phenyl)amino)-4b,7,8,8a-tetrahydropyrano[3′,4′:4,5]pyrrolo[2,3-d]pyrimidin-9(5H)-yl)pyridin-2-yl)pyrrolidin-2-one] is higher in IC50: 10 to 100 nM for the first, 100 to 1000 nM for the second.

`CN1CC[C@@](C)(c2ccc(Nc3ncc4c(n3)N(c3cccc(N5CCOC5=O)n3)[C@H]3CC(C)(C)OC[C@@]43C)cc2)C1` [Example 671, 3-(6-((4bS,8aS)-2-((4-((S)-1,3-dimethylpyrrolidin-3-yl)phenyl)amino)-4b,7,7-trimethyl-4b,7,8,8a-tetrahydropyrano[3′,4′:4,5]pyrrolo[2,3-d]pyrimidin-9(5H)-yl)pyridin-2-yl)oxazolidin-2-one] and `CC1(C)C[C@@H]2N(c3cccc(N4CCOC4=O)n3)c3nc(Nc4ccc(C5CNC5)cc4)ncc3[C@]2(C)CO1` [Example 667, 3-(6-((4bS,8aS)-2-((4-(azetidin-3-yl)phenyl)amino)-4b,7,7-trimethyl-4b,7,8,8a-tetrahydropyrano[3′,4′:4,5]pyrrolo[2,3-d]pyrimidin-9(5H)-yl)pyridin-2-yl)oxazolidin-2-one] fall in the same range of IC50: 10 to 100 nM for the first, 10 to 100 nM for the second.

First: CNCc1cccc(N2c3nc(Nc4ccc(-n5ccnc5)nc4)ncc3[C@]3(C)COC(C)(C)C[C@H]23)n1 (single isomer, unassigned) [Example 467]
Second: CNCc1cccc(N2c3nc(Nc4ccn(C)c(=O)c4)ncc3[C@@]3(C)COC(C)(C)C[C@@H]23)n1 (single isomer, unassigned) [Example 456]
The IC50 of the first is higher: ≥ 1000 nM for the first, 10 to 100 nM for the second. The second is the more potent here.

First: CC1(C)C[C@@H]2N(c3cccc(N4CCCC4=O)n3)c3nc(Nc4ccc([C@@H]5CCNC5)cc4)ncc3[C@]2(C)CO1 [Example 633, 1-(6-((4bS,8aS)-4b,7,7-trimethyl-2-((4-((S)-pyrrolidin-3-yl)phenyl)amino)-4b,7,8,8a-tetrahydropyrano[3′,4′:4,5]pyrrolo[2,3-d]pyrimidin-9(5H)-yl)pyridin-2-yl)pyrrolidin-2-one]
Second: CC1(C)C[C@@H]2N(c3cccc(N4CCOC4=O)n3)c3nc(Nc4ccc([C@H]5CNCC5(F)F)cc4)ncc3[C@]2(C)CO1 [Example 683, 3-(6-((4bS,8aS)-2-((4-((S)-4,4-difluoropyrrolidin-3-yl)phenyl)amino)-4b,7,7-trimethyl-4b,7,8,8a-tetrahydropyrano[3′,4′:4,5]pyrrolo[2,3-d]pyrimidin-9(5H)-yl)pyridin-2-yl)oxazolidin-2-one]
The IC50 of the first is lower: 10 to 100 nM for the first, 100 to 1000 nM for the second. The first is the more potent here.

First: CN1C[C@H]2C[C@@H]1CN2c1ccc(Nc2ncc3c(n2)N(c2cccc(N4C(=O)CCC4(C)C)n2)[C@@H]2CC(C)(C)OC[C@]32C)cc1 [Example 797, 5,5-dimethyl-1-(6-((4bR,8aR)-4b,7,7-trimethyl-2-((4-((1R,4R)-5-methyl-2,5-diazabicyclo[2.2.1]heptan-2-yl)phenyl)amino)-4b,7,8,8a-tetrahydropyrano[3′,4′:4,5]pyrrolo[2,3-d]pyrimidin-9(5H)-yl)pyridin-2-yl)pyrrolidin-2-one]
Second: CN1C[C@@H]2C[C@H]1CN2c1ccc(Nc2ncc3c(n2)N(c2cccc(N4CCCC4=O)n2)[C@H]2CC(C)(C)OC[C@@]32C)cc1F [Example 641, 1-(6-((4bS,8aS)-2-((3-fluoro-4-((1S,4S)-5-methyl-2,5-diazabicyclo[2.2.1]heptan-2-yl)phenyl)amino)-4b,7,7-trimethyl-4b,7,8,8a-tetrahydropyrano[3′,4′:4,5]pyrrolo[2,3-d]pyrimidin-9(5H)-yl)pyridin-2-yl)pyrrolidin-2-one]
The IC50 of the first is lower: < 10 nM for the first, 100 to 1000 nM for the second.

`CN1CC[C@H](n2ccc(Nc3ncc4c(n3)N(c3cccc(N=S(C)(C)=O)n3)[C@@H]3CC(C)(C)OC[C@]43C)cc2=O)C1` [Example 805, 4-(((4bR,8aR)-9-(6-((dimethyl(oxo)-16-sulfaneylidene)amino)pyridin-2-yl)-4b,7,7-trimethyl-4b,5,7,8,8a,9-hexahydropyrano[3′,4′:4,5]pyrrolo[2,3-d]pyrimidin-2-yl)amino)-1-((S)-1-methylpyrrolidin-3-yl)pyridin-2(1H)-one] was tested, and the IC50 was < 10 nM.
